18 compounds from ChEMBL document CHEMBL1909046, “DrugMatrix in vitro pharmacology data” can be followed below.

Data set [1] has as its target Protein kinase C alpha type (Homo sapiens, UniProt P17252). Type of data set: cell-based. The conditions noted are these: sf9.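 Also: inhibition of PKCalpha kinase activity measured in an enzyme assay with histone as the phosphorylation substrate; in other assays of this panel Not Active means under 50% inhibition at 10 µM.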
Data set [2] in a line: DRUGMATRIX: beta-Lactamase enzyme inhibition (substrate: Nitrocefin). Particulars: Not Active = under 50% inhibition at 10 µM. More on the design: species or system Bacillus cereus.
The target of a further data set is T1, Cathepsin G (Homo sapiens, UniProt P08311).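 Also: inhibition of Cathepsin G enzyme activity, tested on an AMC-conjugated peptide substrate; in other assays of this panel Not Active means under 50% inhibition at 10 µM.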
T1 sequence (P08311 whole entry): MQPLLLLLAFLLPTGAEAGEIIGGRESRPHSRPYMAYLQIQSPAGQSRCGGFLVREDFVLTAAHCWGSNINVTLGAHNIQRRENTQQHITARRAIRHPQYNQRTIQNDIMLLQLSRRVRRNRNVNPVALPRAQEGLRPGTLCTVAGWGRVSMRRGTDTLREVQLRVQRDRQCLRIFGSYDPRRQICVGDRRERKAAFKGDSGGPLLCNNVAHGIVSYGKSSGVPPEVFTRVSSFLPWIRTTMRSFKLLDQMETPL
It is filed as tissue-based. The conditions noted are these: neutrophil.

The target in the next data set is Histamine H2 receptor (Homo sapiens, UniProt P25021). Type of data set: cell membranes, CHO-K1, Membrane. Particulars: cho-k1. Also: in other assays of this panel Not Active means under 50% inhibition at 10 µM.
Chain of Histamine H2 receptor (P25021 whole entry): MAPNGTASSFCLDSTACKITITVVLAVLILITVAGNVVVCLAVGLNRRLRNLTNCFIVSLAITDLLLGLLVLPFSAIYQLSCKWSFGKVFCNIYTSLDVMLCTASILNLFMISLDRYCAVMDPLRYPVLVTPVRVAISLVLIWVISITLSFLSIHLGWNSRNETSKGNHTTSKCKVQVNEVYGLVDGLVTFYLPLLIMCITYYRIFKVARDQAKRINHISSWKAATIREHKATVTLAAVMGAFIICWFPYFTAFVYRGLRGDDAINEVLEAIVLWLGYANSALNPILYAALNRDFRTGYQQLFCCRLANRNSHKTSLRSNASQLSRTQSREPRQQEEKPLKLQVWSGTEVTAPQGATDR
For data set [3], the target named is Tyrosine-protein kinase Lck (Homo sapiens, UniProt P06239). Briefly: DRUGMATRIX: Protein Tyrosine Kinase, LCK enzyme inhibition (substrate: Poly(Glu:Tyr)). It is filed as cell-based, Insect cells. Particulars: Not Active = under 50% inhibition at 10 µM; for pIC50: read-out: IC50.
Chain of Tyrosine-protein kinase Lck (P06239 whole entry): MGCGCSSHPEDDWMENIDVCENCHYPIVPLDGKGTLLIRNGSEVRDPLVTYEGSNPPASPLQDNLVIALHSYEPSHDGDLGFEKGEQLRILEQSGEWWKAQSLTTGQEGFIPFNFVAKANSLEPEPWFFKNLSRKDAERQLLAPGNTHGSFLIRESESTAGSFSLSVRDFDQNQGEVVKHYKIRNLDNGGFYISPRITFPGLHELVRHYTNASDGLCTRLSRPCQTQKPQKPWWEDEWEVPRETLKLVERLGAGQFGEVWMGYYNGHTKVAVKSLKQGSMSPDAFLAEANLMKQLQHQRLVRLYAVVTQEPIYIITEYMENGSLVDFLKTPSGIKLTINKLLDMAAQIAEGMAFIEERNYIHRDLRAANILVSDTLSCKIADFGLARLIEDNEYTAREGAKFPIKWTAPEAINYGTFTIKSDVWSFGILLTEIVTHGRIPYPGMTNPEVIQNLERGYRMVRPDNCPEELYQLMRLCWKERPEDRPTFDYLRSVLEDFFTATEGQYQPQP
A short description of data set [4]: DRUGMATRIX: Platelet-Derived Growth Factor (PDGF) radioligand binding (ligand: [125I] PDGF). Particulars: nih3t3; Not Active = under 50% inhibition at 10 µM. Type of data set: cell-based.
Another data set concerns the target Cytochrome P450 2C19 (Homo sapiens, UniProt P33261). The conditions noted are these: bti-tn-5b1-4. Also: in other assays of this panel Not Active means under 50% inhibition at 10 µM.

pIC50: −log10 of the molar value.

Chain of Cytochrome P450 2C19 (P33261 whole entry): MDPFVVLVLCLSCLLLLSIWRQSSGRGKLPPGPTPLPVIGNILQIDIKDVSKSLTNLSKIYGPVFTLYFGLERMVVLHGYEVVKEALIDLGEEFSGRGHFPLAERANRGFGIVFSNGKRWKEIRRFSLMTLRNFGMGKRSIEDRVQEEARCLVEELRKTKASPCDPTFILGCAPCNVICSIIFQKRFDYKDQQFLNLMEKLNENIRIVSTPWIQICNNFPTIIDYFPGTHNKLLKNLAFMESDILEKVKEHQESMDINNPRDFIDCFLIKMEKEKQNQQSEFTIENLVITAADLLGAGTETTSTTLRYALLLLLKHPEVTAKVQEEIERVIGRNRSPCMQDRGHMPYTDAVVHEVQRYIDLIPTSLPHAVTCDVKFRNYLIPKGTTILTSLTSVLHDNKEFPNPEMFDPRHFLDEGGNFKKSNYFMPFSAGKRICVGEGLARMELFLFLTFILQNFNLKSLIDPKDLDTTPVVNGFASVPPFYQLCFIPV

In the case of `CNCCCN1c2ccccc2CCc2ccccc21` [DESIPRAMINE], the IC50 result (in data set [1]; in data set [2]; against Cathepsin G; on Histamine H2 receptor; in data set [3] (insect cells); in data set [4]) was “Not Active” each time. In addition, on Cytochrome P450 2C19, the IC50 result is listed as “Not Active”. Besides, the Ki result (in data set [2]; in data set [4]; at Cytochrome P450 2C19) was “Not Active” in each case.

Regarding `Cc1ccccc1N1C(=O)c2cc(S(N)(=O)=O)c(Cl)cc2NC1C` (stereo unspecified) [METOLAZONE], the IC50 result (in data set [1]; in data set [2]; at Cathepsin G; on Histamine H2 receptor; in data set [3] (insect cells); in data set [4]) was “Not Active” in each case. On Cytochrome P450 2C19, the IC50 result is listed as “Not Active”. In addition, the Ki entry (in data set [2]; in data set [4]; on Cytochrome P450 2C19) was “Not Active” throughout.

For the compound `C1CCC(C(CC2CCCCN2)C2CCCCC2)CC1` (stereo unspecified) [PERHEXILINE], the IC50 entry (in data set [1]; in data set [2]; at Cathepsin G; against Histamine H2 receptor; in data set [3] (insect cells); in data set [4]) was “Not Active” in each case. In addition, the IC50 result on Cytochrome P450 2C19 was “Not Active”. Also, the Ki result (in data set [2]; in data set [4]; at Cytochrome P450 2C19) was “Not Active” throughout.

Consider `CC(C)CN(C[C@@H](O)[C@H](Cc1ccccc1)NC(=O)O[C@H]1CCOC1)S(=O)(=O)c1ccc(N)cc1`, for which the IC50 result (in data set [1]; in data set [2]; against Cathepsin G; against Histamine H2 receptor; in data set [3] (insect cells); in data set [4]) was “Not Active” each time. Also, the IC50 entry at Cytochrome P450 2C19 is “Not Active”. The Ki result (in data set [2]; in data set [4]; on Cytochrome P450 2C19) was “Not Active” in each case.

Turning to `O=c1[nH]c(=O)n([C@H]2C[C@H](O)[C@@H](CO)O2)cc1I` [IDOXURIDINE], the IC50 entry (in data set [1]; in data set [2]; against Cathepsin G; on Histamine H2 receptor; in data set [3] (insect cells); in data set [4]) was “Not Active” in each case. In addition, the IC50 entry against Cytochrome P450 2C19 is recorded as “Not Active”. For the same compound, the Ki entry (in data set [2]; in data set [4]; at Cytochrome P450 2C19) was “Not Active” each time.

Take `O=C(CCCN1CC=C(n2c(=O)[nH]c3ccccc32)CC1)c1ccc(F)cc1` [DROPERIDOL]: the IC50 entry (in data set [1]; in data set [2]; at Cathepsin G; against Histamine H2 receptor; in data set [3] (insect cells); in data set [4]) was “Not Active” each time. In addition, on Cytochrome P450 2C19, the IC50 entry is “Not Active”. The Ki entry (in data set [2]; in data set [4]; at Cytochrome P450 2C19) was “Not Active” throughout.

With `CC(=O)O[C@@]12CO[C@@H]1C[C@H](O)[C@@]1(C)C(=O)[C@H](O)C3=C(C)[C@@H](OC(=O)[C@H](O)[C@@H](NC(=O)OC(C)(C)C)c4ccccc4)C[C@@](O)([C@@H](OC(=O)c4ccccc4)[C@H]21)C3(C)C.O.O.O` [DOCETAXEL], the IC50 result (in data set [1]; in data set [2]; at Cathepsin G; on Histamine H2 receptor; in data set [3] (insect cells); in data set [4]) was “Not Active” throughout. The IC50 result against Cytochrome P450 2C19 was “Not Active”. The Ki result (in data set [2]; in data set [4]; on Cytochrome P450 2C19) was “Not Active” throughout.

With `C[C@H]1c2cccc(O)c2C(=O)C2=C(O)[C@]3(O)C(=O)C(C(N)=O)=C(O)[C@@H](N(C)C)[C@@H]3[C@@H](O)[C@@H]21.O` [DOXYCYCLINE], the IC50 result (in data set [1]; in data set [2]; against Cathepsin G; against Histamine H2 receptor; in data set [3] (insect cells); in data set [4]) was “Not Active” each time. Besides, the IC50 entry on Cytochrome P450 2C19 was “Not Active”. Moreover, the Ki result (in data set [2]; in data set [4]; at Cytochrome P450 2C19) was “Not Active” throughout.

For LIPOPOLYSACCHARIDE E. COLI O55:B5, the IC50 result (in data set [1]; against Histamine H2 receptor; in data set [4]; against Cytochrome P450 2C19) was “Not Active” each time. In addition, the Ki entry (in data set [1]; on Histamine H2 receptor; in data set [4]; on Cytochrome P450 2C19) was “Not Active” each time. In addition, the results for the pIC50 (in data set [2] (read-out: IC50); on Cathepsin G (read-out: IC50); in data set [3] (insect cells)) were 7.41, 6.07 and 6.53, respectively.

Consider `NCCCCCC(=O)O` [AMINOCAPROIC ACID], for which the IC50 entry (in data set [1]; in data set [2]; against Cathepsin G; against Histamine H2 receptor; in data set [3] (insect cells); in data set [4]) was “Not Active” in each case. Besides, on Cytochrome P450 2C19, the IC50 result is on record as “Not Active”. The Ki result (in data set [2]; in data set [4]; at Cytochrome P450 2C19) was “Not Active” throughout.

Consider `CCC(C)n1ncn(-c2ccc(N3CCN(c4ccc(OCC5COC(Cn6cncn6)(c6ccc(Cl)cc6Cl)O5)cc4)CC3)cc2)c1=O` (stereo unspecified) [ITRACONAZOLE], for which the IC50 result (in data set [1]; in data set [2]; at Cathepsin G; at Histamine H2 receptor; in data set [3] (insect cells); in data set [4]) was “Not Active” in each case. Also, the IC50 result against Cytochrome P450 2C19 is on record as “Not Active”. Also, the Ki result (in data set [2]; in data set [4]; at Cytochrome P450 2C19) was “Not Active” in each case.

On to `Cc1c(C)c2c(c(C)c1O)CC[C@@](C)(CCC[C@H](C)CCC[C@H](C)CCCC(C)C)O2` [ALPHA-TOCOPHEROL], for which the IC50 result (in data set [1]; in data set [2]; on Cathepsin G; on Histamine H2 receptor; in data set [3] (insect cells); in data set [4]) was “Not Active” each time. Moreover, the IC50 result against Cytochrome P450 2C19 is “Not Active”. Further, the Ki result (in data set [2]; in data set [4]; at Cytochrome P450 2C19) was “Not Active” in each case.

On to `Cc1cc(C(C#N)c2ccc(Cl)cc2)c(Cl)cc1NC(=O)c1cc(I)cc(I)c1O` (stereo unspecified) [CLOSANTEL], for which the IC50 entry (in data set [1]; in data set [2]; at Cathepsin G; at Histamine H2 receptor; in data set [4]; against Cytochrome P450 2C19) was “Not Active” throughout. Moreover, the Ki result (in data set [2]; in data set [4]; on Cytochrome P450 2C19) was “Not Active” each time. Besides, in data set [3], the negative logarithm of the IC50 (pIC50) is 5.90.

Take `CNNCc1ccc(C(=O)NC(C)C)cc1` [PROCARBAZINE]: the IC50 result (in data set [1]; in data set [2]; on Cathepsin G; against Histamine H2 receptor; in data set [3] (insect cells); in data set [4]) was “Not Active” in each case. The IC50 entry against Cytochrome P450 2C19 is recorded as “Not Active”. In addition, the Ki entry (in data set [2]; in data set [4]; on Cytochrome P450 2C19) was “Not Active” in each case.

As for `Cc1ccc(/N=C/N(C)/C=N/c2ccc(C)cc2C)c(C)c1` [AMITRAZ], the IC50 result (in data set [1]; in data set [2]; at Cathepsin G; at Histamine H2 receptor; in data set [3] (insect cells); in data set [4]) was “Not Active” in each case. On Cytochrome P450 2C19, the IC50 entry is given as “Not Active”. The Ki result (in data set [2]; in data set [4]; at Cytochrome P450 2C19) was “Not Active” throughout.

As for `Cc1ccc2cc3c(ccc4ccccc43)c3c2c1CC3` [3-METHYLCHOLANTHRENE], the IC50 result (in data set [1]; in data set [2]; at Cathepsin G; against Histamine H2 receptor; in data set [4]; on Cytochrome P450 2C19) was “Not Active” throughout. In addition, the Ki result (in data set [2]; in data set [4]; on Cytochrome P450 2C19) was “Not Active” throughout. Besides, the negative-log IC50 (pIC50) in data set [3] is 4.26.

Consider `CNCCc1ccccn1` [BETAHISTINE], for which the IC50 entry (in data set [1]; in data set [2]; against Cathepsin G; against Histamine H2 receptor; in data set [3] (insect cells); in data set [4]) was “Not Active” throughout. For the same compound, the IC50 entry on Cytochrome P450 2C19 is “Not Active”. Further, the Ki entry (in data set [2]; in data set [4]; at Cytochrome P450 2C19) was “Not Active” each time.

As for `OC(Cn1cncn1)(Cn1cncn1)c1ccc(F)cc1F` [FLUCONAZOLE], the IC50 entry (in data set [1]; in data set [2]; against Cathepsin G; on Histamine H2 receptor; in data set [3] (insect cells); in data set [4]) was “Not Active” each time. Also, on Cytochrome P450 2C19, the IC50 entry is “Not Active”. The Ki result (in data set [2]; in data set [4]; at Cytochrome P450 2C19) was “Not Active” throughout.

A word on the pIC50: it is the IC50 on a negative log10 scale, so that one unit is a factor of ten.
